In brackets after ≈: the same amount, converted by molar mass.
What was measured:
Candida tropicalis = experiment: Antifungal activity against Candida tropicalis C131-1997 after 48 hrs; type: functional
Candida parapsilosis = experiment: Antifungal activity against Candida parapsilosis C124-2000 after 48 hrs; type: functional; conditions: Lodderomyces parapsilosis
Trichophyton benhamiae [1] = experiment: Antifungal activity against Trichophyton mentagrophytes C539 after 48 hrs; type: functional, Arthroderma benhamiae
Candida albicans [2] = experiment: Antifungal activity against Candida albicans ATCC 10231 after 48 hrs; type: functional; conditions: ATCC 10231, 48 h
Torulaspora delbrueckii = experiment: Antifungal activity against Candida coliculosa C122-2000 after 48 hrs; type: functional
Trichophyton benhamiae [3] = experiment: Antifungal activity against Trichophyton mentagrophytes C943 after 48 hrs; type: functional, Arthroderma benhamiae
Cryptococcus neoformans [4] = experiment: Antifungal activity against […] ATCC 32264 after 48 hrs; type: functional; conditions: ATCC 32264, 48 h
Candida albicans [5] = experiment: Antifungal activity against Candida albicans C127-2000 after 48 hrs; type: functional
Trichophyton benhamiae [6] = experiment: Antifungal activity against Trichophyton mentagrophytes C364 after 48 hrs; type: functional, Arthroderma benhamiae
Candida albicans [7] = experiment: Antifungal activity against Candida albicans C129-2000 after 48 hrs; type: functional
Cryptococcus neoformans [8] = experiment: Antifungal activity against […] IM 972751 after 48 hrs; type: functional
Kluyveromyces marxianus = experiment: Antifungal activity against Candida kefyr C123-2000 after 48 hrs; type: functional
Candida albicans [9] = experiment: Antifungal activity against Candida albicans C130-2000 after 48 hrs; type: functional
Cryptococcus neoformans [10] = experiment: Antifungal activity against […] IM 031706 after 48 hrs; type: functional
Nannizzia gypsea = experiment: Antifungal activity against Microsporum gypseum C115 after 48 hrs; type: functional
Cryptococcus neoformans [11] = experiment: Antifungal activity against […] IM 983036 after 48 hrs; type: functional
Cryptococcus neoformans [12] = experiment: Antifungal activity against […] IM 031631 after 48 hrs; type: functional; conditions: Cryptococcus neoformans, 48 h
Pichia kudriavzevii = experiment: Antifungal activity against Candida krusei C117-2000 after 48 hrs; type: functional
Trichophyton rubrum = experiment: Antifungal activity against Trichophyton rubrum C113 after 48 hrs; type: functional
Cryptococcus neoformans [13] = experiment: Antifungal activity against Candida neoformans IM 983040 after 48 hrs; type: functional
Cryptococcus neoformans [14] = experiment: Antifungal activity against […] IM 961951 after 48 hrs; type: functional
Cryptococcus neoformans [15] = experiment: Antifungal activity against […] IM 042074 after 48 hrs; type: functional
Cryptococcus neoformans [16] = experiment: Antifungal activity against […] IM 00319 after 48 hrs; type: functional
Nakaseomyces glabratus = experiment: Antifungal activity against Candida glabrata C115-2000 after 48 hrs; type: functional
Trichophyton benhamiae [17] = experiment: Antifungal activity against Trichophyton mentagrophytes ATCC 9972 after 48 hrs; type: functional, Arthroderma benhamiae; conditions: ATCC 9972, 48 h
Aspergillus flavus = experiment: Antifungal activity against Aspergillus flavus ATCC 9170 after 48 hrs; type: functional; conditions: ATCC 9170, 48 h
Saccharomyces cerevisiae = experiment: Antifungal activity against Saccharomyces cerevisiae ATCC 9763 after 48 hrs; type: functional; conditions: ATCC 9763, 48 h
Aspergillus niger = experiment: Antifungal activity against Aspergillus niger ATCC 9029 after 48 hrs; type: functional; conditions: ATCC 9029, 48 h
Trichophyton benhamiae [18] = experiment: Antifungal activity against Trichophyton mentagrophytes C738 after 48 hrs; type: functional, Arthroderma benhamiae
Cryptococcus neoformans [19] = experiment: Antifungal activity against Cryptococcus neoformans ATCC 32264 after 48 hrs; type: functional; conditions: ATCC 32264, 48 h
Candida albicans [20] = experiment: Antifungal activity against Candida albicans C126-2000 after 48 hrs; type: functional
Candida albicans [21] = experiment: Antifungal activity against Candida albicans C128-2000 after 48 hrs; type: functional
Candida albicans [22] = experiment: Antifungal activity against Candida albicans C125-2000 after 48 hrs; type: functional
Aspergillus fumigatus = experiment: Antifungal activity against Aspergillus fumigatus ATCC 26934 after 48 hrs; type: functional; conditions: ATCC 26934, 48 h
Cryptococcus neoformans [23] = experiment: Antifungal activity against […] IM 972724 after 48 hrs; type: functional
Clavispora lusitaniae = experiment: Antifungal activity against Candida lusitaniae C131-2000 after 48 hrs; type: functional
Cryptococcus neoformans [24] = experiment: Antifungal activity against […] IM 052470 after 48 hrs; type: functional
Trichophyton benhamiae [25] = experiment: Antifungal activity against Trichophyton mentagrophytes C108 after 48 hrs; type: functional, Arthroderma benhamiae

O=C1NC(=S)S/C1=C\c1ccc(F)cc1
MFC (Candida tropicalis): 15.6 µg/mL (≈ 65.2 µM)
MIC (Candida tropicalis): 7.8 µg/mL (≈ 32.6 µM)
MIC50 (Candida tropicalis): 3.9 µg/mL (≈ 16.3 µM)
MIC80 (Candida tropicalis): 7.8 µg/mL (≈ 32.6 µM)
MFC (Candida parapsilosis): 15.6 µg/mL (≈ 65.2 µM)
MIC (Candida parapsilosis): 7.8 µg/mL (≈ 32.6 µM)
MIC50 (Candida parapsilosis): 7.8 µg/mL (≈ 32.6 µM)
MIC80 (Candida parapsilosis): 3.9 µg/mL (≈ 16.3 µM)
MIC (Trichophyton benhamiae [1]): 1.95 µg/mL (≈ 8.15 µM)
MIC (Candida albicans [2]): 7.8 µg/mL (≈ 32.6 µM)
MFC (Torulaspora delbrueckii): 15.6 µg/mL (≈ 65.2 µM)
MIC (Torulaspora delbrueckii): 7.8 µg/mL (≈ 32.6 µM)
MIC50 (Torulaspora delbrueckii): 3.9 µg/mL (≈ 16.3 µM)
MIC80 (Torulaspora delbrueckii): 3.9 µg/mL (≈ 16.3 µM)
MIC (Trichophyton benhamiae [3]): 0.97 µg/mL (≈ 4.05 µM)
MFC (Cryptococcus neoformans [4]): 31.2 µg/mL (≈ 130 µM)
MIC (Cryptococcus neoformans [4]): 7.8 µg/mL (≈ 32.6 µM)
MIC50 (Cryptococcus neoformans [4]): 3.9 µg/mL (≈ 16.3 µM)
MIC80 (Cryptococcus neoformans [4]): 7.8 µg/mL (≈ 32.6 µM)
MFC (Candida albicans [5]): 31.2 µg/mL (≈ 130 µM)
MIC (Candida albicans [5]): 15.6 µg/mL (≈ 65.2 µM)
MIC50 (Candida albicans [5]): 7.8 µg/mL (≈ 32.6 µM)
MIC80 (Candida albicans [5]): 15.6 µg/mL (≈ 65.2 µM)
MIC (Trichophyton benhamiae [6]): 0.97 µg/mL (≈ 4.05 µM)
MFC (Candida albicans [7]): 31.2 µg/mL (≈ 130 µM)
MIC (Candida albicans [7]): 15.6 µg/mL (≈ 65.2 µM)
MIC50 (Candida albicans [7]): 3.9 µg/mL (≈ 16.3 µM)
MIC80 (Candida albicans [7]): 7.8 µg/mL (≈ 32.6 µM)
MFC (Cryptococcus neoformans [8]): 62.5 µg/mL (≈ 261 µM)
MIC (Cryptococcus neoformans [8]): 7.8 µg/mL (≈ 32.6 µM)
MIC50 (Cryptococcus neoformans [8]): 1.9 µg/mL (≈ 7.94 µM)
MIC80 (Cryptococcus neoformans [8]): 1.9 µg/mL (≈ 7.94 µM)
MFC (Kluyveromyces marxianus): 31.2 µg/mL (≈ 130 µM)
MIC (Kluyveromyces marxianus): 31.2 µg/mL (≈ 130 µM)
MIC50 (Kluyveromyces marxianus): 3.9 µg/mL (≈ 16.3 µM)
MIC80 (Kluyveromyces marxianus): 7.8 µg/mL (≈ 32.6 µM)
MFC (Candida albicans [9]): 31.2 µg/mL (≈ 130 µM)
MIC (Candida albicans [9]): 15.6 µg/mL (≈ 65.2 µM)
MIC50 (Candida albicans [9]): 3.9 µg/mL (≈ 16.3 µM)
MIC80 (Candida albicans [9]): 7.8 µg/mL (≈ 32.6 µM)
MFC (Cryptococcus neoformans [10]): 31.2 µg/mL (≈ 130 µM)
MIC (Cryptococcus neoformans [10]): 7.8 µg/mL (≈ 32.6 µM)
MIC50 (Cryptococcus neoformans [10]): 1.9 µg/mL (≈ 7.94 µM)
MIC80 (Cryptococcus neoformans [10]): 3.9 µg/mL (≈ 16.3 µM)
MIC (Nannizzia gypsea): 15.6 µg/mL (≈ 65.2 µM)
MFC (Cryptococcus neoformans [11]): 62.5 µg/mL (≈ 261 µM)
MIC (Cryptococcus neoformans [11]): 15.6 µg/mL (≈ 65.2 µM)
MIC50 (Cryptococcus neoformans [11]): 7.8 µg/mL (≈ 32.6 µM)
MIC80 (Cryptococcus neoformans [11]): 7.8 µg/mL (≈ 32.6 µM)
MIC (Cryptococcus neoformans [12]): 7.8 µg/mL (≈ 32.6 µM)
MIC50 (Cryptococcus neoformans [12]): 1.9 µg/mL (≈ 7.94 µM)
MIC80 (Cryptococcus neoformans [12]): 3.9 µg/mL (≈ 16.3 µM)
MFC (Cryptococcus neoformans [12]; read-out: MFC): 31.2 µg/mL (≈ 130 µM)
MFC (Pichia kudriavzevii): 62.5 µg/mL (≈ 261 µM)
MIC (Pichia kudriavzevii): 31.2 µg/mL (≈ 130 µM)
MIC50 (Pichia kudriavzevii): 3.9 µg/mL (≈ 16.3 µM)
MIC80 (Pichia kudriavzevii): 7.8 µg/mL (≈ 32.6 µM)
MIC (Trichophyton rubrum): 32 µg/mL (≈ 134 µM)
MFC (Cryptococcus neoformans [13]): 31.2 µg/mL (≈ 130 µM)
MIC (Cryptococcus neoformans [13]): 15.6 µg/mL (≈ 65.2 µM)
MIC50 (Cryptococcus neoformans [13]): 1.9 µg/mL (≈ 7.94 µM)
MIC80 (Cryptococcus neoformans [13]): 1.9 µg/mL (≈ 7.94 µM)
MFC (Cryptococcus neoformans [14]): 15.6 µg/mL (≈ 65.2 µM)
MIC (Cryptococcus neoformans [14]): 7.8 µg/mL (≈ 32.6 µM)
MIC50 (Cryptococcus neoformans [14]): 1.9 µg/mL (≈ 7.94 µM)
MIC80 (Cryptococcus neoformans [14]): 7.8 µg/mL (≈ 32.6 µM)
MFC (Cryptococcus neoformans [15]): 31.2 µg/mL (≈ 130 µM)
MIC (Cryptococcus neoformans [15]): 7.8 µg/mL (≈ 32.6 µM)
MIC50 (Cryptococcus neoformans [15]): 3.9 µg/mL (≈ 16.3 µM)
MIC80 (Cryptococcus neoformans [15]): 3.9 µg/mL (≈ 16.3 µM)
MFC (Cryptococcus neoformans [16]): 15.6 µg/mL (≈ 65.2 µM)
MIC (Cryptococcus neoformans [16]): 7.8 µg/mL (≈ 32.6 µM)
MIC50 (Cryptococcus neoformans [16]): 1.9 µg/mL (≈ 7.94 µM)
MIC80 (Cryptococcus neoformans [16]): 1.9 µg/mL (≈ 7.94 µM)
MFC (Nakaseomyces glabratus): 51.6 µg/mL (≈ 216 µM)
MIC (Nakaseomyces glabratus): 7.8 µg/mL (≈ 32.6 µM)
MIC50 (Nakaseomyces glabratus): 3.9 µg/mL (≈ 16.3 µM)
MIC80 (Nakaseomyces glabratus): 3.9 µg/mL (≈ 16.3 µM)
MIC (Trichophyton benhamiae [17]): 7.8 µg/mL (≈ 32.6 µM)
MIC (Aspergillus flavus): 250 µg/mL (≈ 1040 µM)
MIC (Saccharomyces cerevisiae): 7.8 µg/mL (≈ 32.6 µM)
MIC (Aspergillus niger): 250 µg/mL (≈ 1040 µM)
MIC (Trichophyton benhamiae [18]): 1.95 µg/mL (≈ 8.15 µM)
MIC (Cryptococcus neoformans [19]): 7.8 µg/mL (≈ 32.6 µM)
MFC (Candida albicans [20]): 31.2 µg/mL (≈ 130 µM)
MIC (Candida albicans [20]): 15.6 µg/mL (≈ 65.2 µM)
MIC50 (Candida albicans [20]): 3.9 µg/mL (≈ 16.3 µM)
MIC80 (Candida albicans [20]): 15.6 µg/mL (≈ 65.2 µM)
MFC (Candida albicans [21]): 62.5 µg/mL (≈ 261 µM)
MIC (Candida albicans [21]): 31.2 µg/mL (≈ 130 µM)
MIC50 (Candida albicans [21]): 3.9 µg/mL (≈ 16.3 µM)
MIC80 (Candida albicans [21]): 15.6 µg/mL (≈ 65.2 µM)
MFC (Candida albicans [22]): 31.2 µg/mL (≈ 130 µM)
MIC (Candida albicans [22]): 15.6 µg/mL (≈ 65.2 µM)
MIC50 (Candida albicans [22]): 7.8 µg/mL (≈ 32.6 µM)
MIC80 (Candida albicans [22]): 7.8 µg/mL (≈ 32.6 µM)
MIC (Aspergillus fumigatus): 250 µg/mL (≈ 1040 µM)
MFC (Cryptococcus neoformans [23]): 31.2 µg/mL (≈ 130 µM)
MIC (Cryptococcus neoformans [23]): 15.6 µg/mL (≈ 65.2 µM)
MIC50 (Cryptococcus neoformans [23]): 3.9 µg/mL (≈ 16.3 µM)
MIC80 (Cryptococcus neoformans [23]): 7.8 µg/mL (≈ 32.6 µM)
MFC (Clavispora lusitaniae): 15.6 µg/mL (≈ 65.2 µM)
MIC (Clavispora lusitaniae): 7.8 µg/mL (≈ 32.6 µM)
MIC50 (Clavispora lusitaniae): 3.9 µg/mL (≈ 16.3 µM)
MIC80 (Clavispora lusitaniae): 3.9 µg/mL (≈ 16.3 µM)
MFC (Cryptococcus neoformans [24]): 31.2 µg/mL (≈ 130 µM)
MIC (Cryptococcus neoformans [24]): 7.8 µg/mL (≈ 32.6 µM)
MIC50 (Cryptococcus neoformans [24]): 1.9 µg/mL (≈ 7.94 µM)
MIC80 (Cryptococcus neoformans [24]): 1.9 µg/mL (≈ 7.94 µM)
MIC (Trichophyton benhamiae [25]): 1.95 µg/mL (≈ 8.15 µM)

— ChEMBL document CHEMBL1144507, “Synthesis and antifungal activity of (Z)-5-arylidenerhodanines” (2007)
